Reference: article PMC12363342, “Investigating the N-terminal linker histone H1 subtypes as substrates for JmjC lysine demethylases” (RSC Chemical Biology, 2025)
Square brackets hold non-standard residues; d marks the D form. Ends that are not written are not given here. Lys(Me3) = C[N+](C)(C)CCCC[C@H](N)C(=O)O

Biological target: T1, KDM4D (Homo sapiens, UniProt Q6B0I6)
T1 construct: KDM4AM1-L359,[38]; KDM4DM1-L359,[39]; KDM4EM1-R336,[30]; His6 (N); made in house; host or cells: Escherichia coli
T1 sequence (Q6B0I6 1-359): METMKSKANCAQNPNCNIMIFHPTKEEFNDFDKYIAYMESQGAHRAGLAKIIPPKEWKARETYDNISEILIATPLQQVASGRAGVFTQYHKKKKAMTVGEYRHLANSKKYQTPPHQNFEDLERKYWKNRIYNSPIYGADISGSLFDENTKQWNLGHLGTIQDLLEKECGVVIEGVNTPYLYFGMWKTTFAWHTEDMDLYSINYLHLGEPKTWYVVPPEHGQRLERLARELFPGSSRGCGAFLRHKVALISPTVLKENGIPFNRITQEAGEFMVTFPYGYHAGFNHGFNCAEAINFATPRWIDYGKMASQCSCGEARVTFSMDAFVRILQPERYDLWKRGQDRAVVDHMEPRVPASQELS
Assay: formaldehyde dehydrogenase (FDH)-coupled demethylation assay, KDM4D
Format: biochemical
Details: FDH-coupled fluorescence assay, KDM4D (400 nM), H1 peptide 1–50 μM, HEPES pH 7.5; for Km / kcat (KDM4D): FAS 20 μM, LAA 200 μM, 2OG 200 μM, NAD+ 500 μM, FDH 2.0 μM, mean ± SEM (n = 3); for kcat/KM (KDM4D): catalytic efficiency
Protocol: Kinetic parameters were determined by recording the initial reaction rates of NADH production at varying histone peptide concentrations (Fig. S24 and S25). The overall catalytic efficiencies (as measured by kcat/KM) gave the following rank orders for KDM4D: H1.5K26me3 (0.192 μM^−1 min^−1) > H1.3K24me3 (0.066 μM^−1 min^−1) ≈ H1.2K26me3 (0.063 μM^−1 min^−1) > H1.4K25me3 (0.044 μM^−1 min^−1). […] These rank orders differ somewhat from the initial screening results. However, given the complexities of 2OG oxygenase catalysis and the relatively low catalytic efficiencies observed, such apparent discrepancies are not unexpected.[28] It is also noteworthy that, in some instances, increased KM values correlate with elevated kcat values, resulting in similar kcat/KM ratios, particularly for H1.4K25me3 with KDM4D and H1.2K25me3 with KDM4E.
Kinetic parameters for demethylation of N^ε-trimethylated H1 peptides by KDM4D and KDM4E (400 nM) measured using a formaldehyde dehydrogenase-coupled demethylation assay. H1 peptide (1–50 μM), FAS (20 μM), LAA (200 μM), 2OG (200 μM), NAD^+ (500 μM), KDM4 enzyme (0.8 μM) and FDH (2.0 μM) in HEPES buffer at pH 7.5. Each value is shown as mean ± SEM (n = 3)
Substrate Km values for KDM4 enzymes were determined using a reported formaldehyde dehydrogenase/NAD coupled enzyme assay that quantifies formaldehyde production.[30] In brief, DNA encoding for wild-type full-length formaldehyde dehydrogenase was synthesised (by GenScript) and cloned into the pET-28B vector. The resultant plasmid was then transformed into the Rosetta strain of Escherichia coli. Coupled enzyme-assays were carried out in black polystyrene 384-well non-binding surface microplates (Corning) and kinetic measurements were obtained using a PHERAstar FS plate reader (BMG Labtech) equipped with a 350 nm excitation and 460 nm emission optic module.[30] All steps were performed in the assay buffer (50 mM HEPES pH 7.5, 0.01% (v/v) Tween-20). Substrate mixtures were prepared freshly and contained FAS (20 μM), LAA (200 μM), 2OG (200 μM), NAD^+ (500 μM), and H1 peptide (1–50 μM); they were dispensed (25 μL final volume) in triplicate. Assays were initiated by plate reader injection of 25 μL of a mixture of KDM4 (0.8 μM) and formaldehyde dehydrogenase (FDH) (2.0 μM) in assay buffer (50 mM HEPES pH 7.5, 0.01% (v/v) Tween-20). Production of NADH was measured at 60 second intervals over 25 cycles. Kinetic parameters were determined from the reaction rate during the initial linear phase of formaldehyde production, and specific activities were calculated from a formaldehyde standard curve and fitted to the Michaelis–Menten equation using GraphPad Prism Version 5.0 (GraphPad software, La Jolla, CA, USA). Each assay was carried out in triplicate with independently prepared reaction mixtures.

| Substance | Km [µM] | kcat (KDM4D) [s⁻¹] | kcat/KM (KDM4D) [M⁻¹ s⁻¹] |
| --- | --- | --- | --- |
| KKKAAK[Lys(Me3)]AGGTPRKA [Peptide H1.2K26me3, 15-mer linker histone H1.2 residues 20-34 peptide, tri-methylated K26] | 4.6 ± 0.41 | 0.00483 ± 0.00017 | 1050 |
| KKKAR[Lys(Me3)]SAGAAKRKA [Peptide H1.4K25me3, 15-mer linker histone H1.4 residues 20-34 peptide, tri-methylated K25] | 60 ± 24.3 | 0.0443 ± 0.0152 | 733 |
| KKKATK[Lys(Me3)]AAGAGAAK [Peptide H1.5K26me3, 15-mer linker histone H1.5 residues 20-34 peptide, tri-methylated K26] | 7.51 ± 0.77 | 0.024 ± 0.0013 | 3200 |
| KKKA[Lys(Me3)]KAGATAGKRK [Peptide H1.3K24me3, 15-mer linker histone H1.3 residues 20-34 peptide, tri-methylated K24] | 5.93 ± 0.69 | 0.0065 ± 0.00033 | 1100 |
